Patent US9777266B2, “Methods for efficient, expansive, user-defined DNA mutagenesis” (THE JOHNS HOPKINS UNIVERSITY, priority 2012, dated 2017)

Tests used:
[1] = tested on: cells bearing wildtype TEM-1; experiment: MIC assay on Mueller Hinton agar, cells bearing TEM-1 without mutation (allele 'none'); assay type: cell-based, E. coli
Protocol: (§1) Selected single base mutations were re-introduced into TEM-1 by site-directed PFunkel mutagenesis on the 20 μL volume scale. The MIC for ampicillin and piperacillin of the mutants was assessed with and without 6 μg/mL tazobactam by spotting 10^4 CFU on Mueller-Hinton agar plates containing 50 μg/mL Spec, 300 μM IPTG, and √2-fold increments of either ampicillin or piperacillin. Plates were incubated at 37° C. for 12 hrs.

[2] = tested on: cells bearing TEM-1 allele Y105N; experiment: MIC assay on Mueller Hinton agar, TEM-1 allele Y105N; assay type: cell-based, E. coli; details: replicates 1-3
Protocol: as §1

[3] = +tazobactam 6 μg/mL, replicates 1-3
[4] = −tazobactam, replicates 1-3, 10^4 CFU/spot, 37° C. for 12 hours

CCN1CCN(C(=O)N[C@@H](C(=O)N[C@@H]2C(=O)N3[C@@H]2SC(C)(C)[C@@H]3C(=O)O)c2ccccc2)C(=O)C1=O [Piperacillin, piperacillin]
Piperacillin MIC [1, 3]: 1.4 µg/mL | Piperacillin MIC [1, 4]: 2896 µg/mL

CC1(C)S[C@@H]2[C@H](NC(=O)[C@H](N)c3ccccc3)C(=O)N2[C@H]1C(=O)O [Ampicillin, ampicillin]
MIC ampicillin [1, 3]: 22.6 µg/mL | MIC ampicillin [1, 4]: 8192 µg/mL | MIC ampicillin ([2]; +tazobactam 6 μg/mL): 1448 µg/mL | MIC ampicillin ([2]; −tazobactam): 5792 µg/mL
